Source: PubChem BioAssay AID602207 (Sanford-Burnham Center for Chemical Genomics, 2012)
The source made the active and inactive calls.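 Rule for the calls: active = IC50 below 100 µM in the TR-FRET assay, unless also active in the caspase-3 counter assay; inactive = the rest, including compounds also active in caspase-3.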

Molecular target: Caspase-3 (Homo sapiens) (UniProt P42574)
Assay: inhibition of recombinant caspase-3 activity – biochemical, luminescence, Caspase-Glo 3/7, set 3, counter-screen for UBC13 polyubiquitin inhibitor project, SAR follow-up (AID 602207)
Settings: recombinant caspase-3, Caspase-Glo luminescence, 60 min

Caspase-3 (Homo sapiens), sequence (P42574 whole entry, looked up): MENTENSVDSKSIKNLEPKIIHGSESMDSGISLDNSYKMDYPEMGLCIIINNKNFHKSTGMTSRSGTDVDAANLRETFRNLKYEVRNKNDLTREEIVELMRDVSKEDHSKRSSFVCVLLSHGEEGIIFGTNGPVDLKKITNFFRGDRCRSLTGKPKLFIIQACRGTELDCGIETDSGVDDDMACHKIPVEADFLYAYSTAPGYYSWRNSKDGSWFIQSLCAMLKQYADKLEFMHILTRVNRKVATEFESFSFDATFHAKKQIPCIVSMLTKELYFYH

IC50 | SMILES
> 100 µM (inactive) | c1ccc(CN2CCN(c3ncnc4c3nc3n4CCCC3)CC2)cc1
> 100 µM (inactive) | O=C(Nc1cccc(Cl)c1)C1CCN(c2ncnc3c2nc2n3CCCCC2)CC1
> 100 µM (inactive) | CCOc1ccc(CCNC(=O)CCCCCN2C(=O)c3ccccc3C2=O)cc1OCC
> 100 µM (inactive) | O=C(Nc1ccc(CN2CCCCC2)cc1)C1CCN(c2ncnc3c2nc2n3CCCCC2)CC1
> 100 µM (inactive) | Fc1ccccc1N1CCN(c2ncnc3c2nc2n3CCCC2)CC1
> 100 µM (inactive) | CC1CN(S(=O)(=O)c2ccc(NC(=O)CCCCCN3C(=O)c4ccccc4C3=O)cc2)CC(C)O1 (centres undefined)
> 100 µM (inactive) | O=C(CCCCCN1C(=O)c2ccccc2C1=O)NCCc1ccccc1

The remaining lines, values behind:

SMILES | IC50
O=C(Nc1cc(F)ccc1F)C1CCN(c2ncnc3c2nc2n3CCCCC2)CC1 | > 100 µM (inactive)
Cc1ccc(NC(=O)C2CCN(c3ncnc4c3nc3n4CCCCC3)CC2)c(Cl)c1 | > 100 µM (inactive)
Cc1ccc(NC(=O)C2CCN(c3ncnc4c3nc3n4CCCCC3)CC2)cc1F | > 100 µM (inactive)
Cc1ccc(Cl)cc1N1CCN(c2ncnc3c2nc2n3CCCC2)CC1 | > 100 µM (inactive)
c1nc(N2CCC(N3CCCCC3)CC2)c2nc3n(c2n1)CCCC3 | > 100 µM (inactive)
Cc1c(Cl)cccc1NC(=O)C1CCN(c2ncnc3c2nc2n3CCCCC2)CC1 | > 100 µM (inactive)
COc1ccc(Cl)cc1NC(=O)C1CCN(c2ncnc3c2nc2n3CCCCC2)CC1 | > 100 µM (inactive)
Cc1cc(Cl)ccc1NC(=O)C1CCN(c2ncnc3c2nc2n3CCCCC2)CC1 | > 100 µM (inactive)
COc1cc(Cl)c(C)cc1NC(=O)C1CCN(c2ncnc3c2nc2n3CCCCC2)CC1 | > 100 µM (inactive)
COc1ccc(NC(=O)C2CCN(c3ncnc4c3nc3n4CCCCC3)CC2)cc1Cl | > 100 µM (inactive)
COc1cc(OC)c(NC(=O)C2CCN(c3ncnc4c3nc3n4CCCCC3)CC2)cc1Cl | > 100 µM (inactive)
Cc1ccc(NC(=O)C2CCN(c3ncnc4c3nc3n4CCCCC3)CC2)cc1C | > 100 µM (inactive)
